Measurements published in patent US20250084095A1, “Aminopyrimidine Derivatives as Cyclin-Dependent Kinase Inhibitors” (Accutar Biotechnology Inc., priority 2023, published 2025).

Tests used:
[1] = system: Phospho-Rb (Ser807/811) in SW1573-CDK4 KO cells; test: Phospho-Rb expression inhibition in SW1573-CDK4 KO cells quantified by in cell Western; assay type: cell-based; conditions: Homo sapiens, 24 hours, read-out: SW1573 CDK4 KO pRb IC50
Method: (§1) Parental SW1573 cells were obtained from the American Type Culture Collection (ATCC). CDK4 or CDK6 gene in […] cells was knocked out using the CRISPR-Cas9 technology. First, gRNA complex of CDK4 or CDK6 was prepared with Alt-R CRISPR-Cas9 tracrRNA and crRNA CDK4 (5′-[…]-3′ (SEQ ID NO: 4)) or CDK6 (5′-[…]-3′ (SEQ ID NO. 5)) (IDT-Integrated DNA Technologies), and then ribonucleoprotein (RNP) complex of CDK4 or CDK6 was prepared with respective gRNA complex and Alt-R S.p. Cas9 Nuclease V3 (IDT-Integrated DNA Technologies). Next, 5×10^4/10 μL SWJ1573 cells were electroporated with the CDK4 or CDK6 RNP complex and Alt-R Cas9 Electroporation Enhancer using Neon Transfection System (Thermo Fisher). Cells were then plated in a 96-well plate to select single clones for validation of CDK4 or CDK6 knockout by western blot analysis.
(§2) MCF7 cells were obtained from American Type Culture Collection (ATCC, HTB-22). SW1573-CDK6 KO and SW1573-CDK4 KO cells were generated by the CRISPR-Cas9 technology. All cells were plated in 96-well plates (VWR #10062-900, or Corning #3904) in 90 uL culture medium at a density of 20,000 cells/well in the respective growth medium containing 10% FBS and 1% Penicillin Streptomycin, and then incubated at 37° C. overnight. The following day, the test compound was administered to the cells by using 1000× compound stock solution prepared in DMSO at various concentrations. 1000× compound stock solution was first diluted in culturing medium to 10×, then 10 uL compound medium was added to each well in the cell plates. After administration of the compound, the cells were then incubated at 37° C. for 24 hours. Upon completion, the cells were washed with PBS briefly. 150 uL/well of 4% formaldehyde was added and the plates were incubated at room temperature for 20 mins. The cells were washed with PBS briefly, and permeabilized with 150 uL/well of ice cold 100% methanol for 10 mins. The cells were washed with PBS briefly and blocked with 100 uL/well LI-COR blocking buffer for 1 hr at room temperature with gentle shaking. The cells were incubated overnight at 4° C. with 50 uL primary antibody rabbit anti-Phospho-Rb (Ser807/811) (1: 500, Cell Signaling, #8516) and anti-Rb (1:200, Santa Cruz, sc-73598) diluted in Intercept Blocking Buffer (LI-COR, #927-60001) containing 0.1% Tween 20. The next day, the cells were washed with 200 uL PBS containing 0.1% Tween 20, 5×5 mins at room temperature with gentle shaking, and incubated with 50 uL secondary antibody, IRDye® 800CW Goat anti-Rabbit IgG (1:1000, LI-COR, #926-32211) and IRDye®680RD Goat anti-Mouse IgG (1:1000, LI-COR, #926-68070), in LI-COR blocking buffer with 0.2% Tween 20 for 1 hr at room temperature with gentle shaking. The cells were washed with 200 uL PBS containing 0.1% Tween 20, 5×5 mins at room temperature with gentle shaking. The cells were washed with PBS for 5 mins. 100 uL fresh PBS was added to each well and the plates were imaged on a LI-COR Odyssey CLX plate reader.

[2] = system: Phospho-Rb (Ser807/811) in SW1573-CDK6 KO cells; test: Phospho-Rb expression inhibition in SW1573-CDK6 KO cells quantified by in cell Western; assay type: cell-based; conditions: Homo sapiens, 24 hours, read-out: SW1573 CDK6 KO pRb IC50
Method: as §1, §2

Row | Structure (SMILES) | IC50 [1] | IC50 [2]
1 | CC(C)n1c(CN2[C@@H](C)COC[C@@H]2C)c(C(F)F)c(=O)c2ccc(-c3nc(N[C@@H]4C[C@H]5CO[C@H](O5)[C@H]4O)ncc3Cl)cc21 [Compound 204, 7-(5-chloro-2-(((1S,3R,4S,5R)-4-hydroxy-6,8-dioxabicyclo[3.2.1]octan-3-yl)amino)pyrimidin-4-yl)-3-(difluoromethyl)-2-(((3S,5S)-3,5-dimethylmorpholino)methyl)-1-isopropylquinolin-4(1H)-one] | > 1000 nM | 40 to 150 nM
2 | CC(C)n1c(CN2[C@@H](C)COC[C@@H]2C)cc(=O)c2ccc(-c3nc(N[C@@H]4C[C@H]5CO[C@H](O5)[C@H]4O)ncc3Cl)cc21 [Compound 205, 7-(5-chloro-2-(((1S,3R,4S,5R)-4-hydroxy-6,8-dioxabicyclo[3.2.1]octan-3-yl)amino)pyrimidin-4-yl)-2-(((3S,5S)-3,5-dimethylmorpholino)methyl)-1-isopropylquinolin-4(1H)-one] | > 1000 nM | 40 to 150 nM
3 | Cc1c(CN2[C@@H](C)COC[C@@H]2C)n(C(C)C)c2cc(-c3nc(N[C@@H]4C[C@H]5CO[C@H](O5)[C@H]4O)ncc3Cl)ccc2c1=O [Compound 206, 7-(5-chloro-2-(((1S,3R,4S,5R)-4-hydroxy-6,8-dioxabicyclo[3.2.1]octan-3-yl)amino)pyrimidin-4-yl)-2-(((3S,5S)-3,5-dimethylmorpholino)methyl)-1-isopropyl-3-methylquinolin-4(1H)-one] | 150 to 1000 nM | ≤ 40 nM
4 | CC(C)n1c([C@@H]2CC2(F)F)nc2c(F)cc(-c3nc(N[C@@H]4C[C@H]5CO[C@H](O5)[C@H]4O)ncc3Cl)cc21 [Compound 216, (1S,3R,4S,5R)-3-((5-chloro-4-(2-((S)-2,2-difluorocyclopropyl)-4-fluoro-1-isopropyl-1H-benzo[d]imidazol-6-yl)pyrimidin-2-yl)amino)-6,8-dioxabicyclo[3.2.1]octan-4-ol] | 150 to 1000 nM | ≤ 40 nM
5 | Cc1c(-c2nc(N[C@@H]3C[C@H]4CO[C@H](O4)[C@H]3O)ncc2Cl)sc2c(C(C)C)cn(C)c(=O)c12 [Compound 223, 2-(5-chloro-2-(((1S,3R,4S,5R)-4-hydroxy-6,8-dioxabicyclo[3.2.1]octan-3-yl)amino)pyrimidin-4-yl)-7-isopropyl-3,5-dimethylthieno[3,2-c]pyridin-4(5H)-one] | 40 to 150 nM | ≤ 40 nM
6 | Cc1c(-c2nc(N[C@@H]3C[C@H]4CO[C@H](O4)[C@H]3O)ncc2C(F)F)sc2c(C(C)C)cn(C)c(=O)c12 [Compound 227, 2-(5-(difluoromethyl)-2-(((1S,3R,4S,5R)-4-hydroxy-6,8-dioxabicyclo[3.2.1]octan-3-yl)amino)pyrimidin-4-yl)-7-isopropyl-3,5-dimethylthieno[3,2-c]pyridin-4(5H)-one] | 150 to 1000 nM | ≤ 40 nM
7 | CCn1cc(C(C)C)c2sc(-c3nc(N[C@@H]4C[C@H]5CO[C@H](O5)[C@H]4O)ncc3Cl)c(C)c2c1=O [Compound 230, 5-ethyl-2-(5-chloro-2-(((1S,3R,4S,5R)-4-hydroxy-6,8-dioxabicyclo[3.2.1]octan-3-yl)amino)pyrimidin-4-yl)-7-isopropyl-3-methylthieno[3,2-c]pyridin-4(5H)-one] | 150 to 1000 nM | ≤ 40 nM
8 | CC(C)(O)c1cnc2c(F)cc(-c3nc(N[C@@H]4C[C@H]5CO[C@H](O5)[C@H]4O)ncc3Cl)cc2c1Cl [Compound 252, (1S,3R,4S,5R)-3-((5-chloro-4-(4-chloro-8-fluoro-3-(2-hydroxypropan-2-yl)quinolin-6-yl)pyrimidin-2-yl)amino)-6,8-dioxabicyclo[3.2.1]octan-4-ol] | 150 to 1000 nM | ≤ 40 nM
9 | CC(C)(O)c1cnc2c(F)cc(-c3nc(N[C@@H]4C[C@H]5CO[C@H](O5)[C@H]4O)ncc3F)cc2c1Cl [Compound 255, (1S,3R,4S,5R)-3-((4-(4-chloro-8-fluoro-3-(2-hydroxypropan-2-yl)quinolin-6-yl)-5-fluoropyrimidin-2-yl)amino)-6,8-dioxabicyclo[3.2.1]octan-4-ol] | > 1000 nM | ≤ 40 nM
10 | Cc1c(C(C)(C)O)cnc2c(F)cc(-c3nc(N[C@@H]4C[C@H]5CO[C@H](O5)[C@H]4O)ncc3F)cc12 [Compound 256, (1S,3R,4S,5R)-3-((5-fluoro-4-(8-fluoro-3-(2-hydroxypropan-2-yl)-4-methylquinolin-6-yl)pyrimidin-2-yl)amino)-6,8-dioxabicyclo[3.2.1]octan-4-ol] | > 1000 nM | ≤ 40 nM
11 | Cc1c(C(C)(C)O)cnc2c(F)cc(-c3nc(N[C@@H]4C[C@H]5CO[C@H](O5)[C@H]4O)ncc3Cl)cc12 [Compound 257, (1S,3R,4S,5R)-3-((5-chloro-4-(8-fluoro-3-(2-hydroxypropan-2-yl)-4-methylquinolin-6-yl)pyrimidin-2-yl)amino)-6,8-dioxabicyclo[3.2.1]octan-4-ol] | 150 to 1000 nM | ≤ 40 nM
12 | Cc1c(-c2nc(N[C@@H]3C[C@H]4CO[C@H](O4)[C@H]3O)ncc2Cl)sc2c(C(C)C)cnnc12 [Compound 259, (1S,3R,4S,5R)-3-((5-chloro-4-(4-isopropyl-7-methylthieno[3,2-c]pyridazin-6-yl)pyrimidin-2-yl)amino)-6,8-dioxabicyclo[3.2.1]octan-4-ol] | 150 to 1000 nM | ≤ 40 nM
13 | COC(=O)N1CC[C@@H](c2nc3c(F)cc(-c4nc(N[C@@H]5C[C@H]6CO[C@H](O6)[C@H]5O)ncc4F)cc3n2C(C)C)C1 [Compound 265, methyl (R)-3-(4-fluoro-6-(5-fluoro-2-(((1S,3R,4S,5R)-4-hydroxy-6,8-dioxabicyclo[3.2.1]octan-3-yl)amino)pyrimidin-4-yl)-1-isopropyl-1H-benzo[d]imidazol-2-yl)pyrrolidine-1-carboxylate] | > 1000 nM | 40 to 150 nM
14 | CC(C)n1c([C@@H]2CCOC2)nc2c(F)cc(-c3nc(N[C@@H]4C[C@H]5CO[C@H](O5)[C@H]4O)ncc3Cl)cc21 [Compound 268, (1S,3R,4S,5R)-3-((5-chloro-4-(4-fluoro-1-isopropyl-2-((S)-tetrahydrofuran-3-yl)-1H-benzo[d]imidazol-6-yl)pyrimidin-2-yl)amino)-6,8-dioxabicyclo[3.2.1]octan-4-ol] | > 1000 nM | 40 to 150 nM
15 | CC(C)n1c([C@H]2CCOC2)nc2c(F)cc(-c3nc(N[C@@H]4C[C@H]5CO[C@H](O5)[C@H]4O)ncc3F)cc21 [Compound 269, (1S,3R,4S,5R)-3-((5-fluoro-4-(4-fluoro-1-isopropyl-2-((R)-tetrahydrofuran-3-yl)-1H-benzo[d]imidazol-6-yl)pyrimidin-2-yl)amino)-6,8-dioxabicyclo[3.2.1]octan-4-ol] | > 1000 nM | 150 to 1000 nM
16 | CC(C)n1c([C@@H]2CCOC2)nc2c(F)cc(-c3nc(N[C@@H]4C[C@H]5CO[C@H](O5)[C@H]4O)ncc3F)cc21 [Compound 270, (1S,3R,4S,5R)-3-((5-fluoro-4-(4-fluoro-1-isopropyl-2-((S)-tetrahydrofuran-3-yl)-1H-benzo[d]imidazol-6-yl)pyrimidin-2-yl)amino)-6,8-dioxabicyclo[3.2.1]octan-4-ol] | > 1000 nM | 40 to 150 nM
17 | Cc1c(-c2nc(N[C@@H]3C[C@H]4CO[C@H](O4)[C@H]3O)ncc2Cl)sc2c(Cl)c(C(C)(C)O)cnc12 [Compound 275, (1S,3R,4S,5R)-3-((5-chloro-4-(7-chloro-6-(2-hydroxypropan-2-yl)-3-methylthieno[3,2-b]pyridin-2-yl)pyrimidin-2-yl)amino)-6,8-dioxabicyclo[3.2.1]octan-4-ol] | > 1000 nM | 40 to 150 nM
